Assay results: patent publication US3980794A, “Method for promoting growth of poultry with 3-(5-nitro-2-imidazolyl)pyrazoles” (Eli Lilly and Company, priority 1975, dated 1976)
Values after ≈ are worked out from the molar mass of the structure shown.

Columns and labels:
[1] = test system: Propionibacterium acnes 44; assay: Susceptibility of anaerobic bacteria, agar dilution; type: cell-based; conditions: Cutibacterium acnes, 24 h; Propionibacterium acnes 44; read-out: 24 Hr. Minimum Inhibitory Concentration
[2] = test system: Bacteroides fragilis sp. thetaiotaomicron 1438; assay: as above; type: cell-based; conditions: Bacteroides fragilis, 24 h, read-out: 24 Hr. Minimum Inhibitory Concentration
[3] = test system: Clostridium perfringens 81; assay: microbe, parasite or virus in culture; type: cell-based; conditions: Clostridium perfringens, 81, 24 h, read-out: 24 Hr. Minimum Inhibitory Concentration
[4] = test system: Bacteroides fragilis sp. fragilis 1936B; assay: Susceptibility of anaerobic bacteria, agar dilution; type: cell-based; conditions: Bacteroides fragilis, 24 h, read-out: 24 Hr. Minimum Inhibitory Concentration
[5] = test system: Peptococcus anaerobius 1428; assay: as above; type: cell-based; conditions: 24 h, read-out: 24 Hr. Minimum Inhibitory Concentration
Salmonella typhimurium = assay: Control of infections caused by Salmonella typhimurium in chickens, subcutaneous (Experiment 2); type: in vivo; conditions: Salmonella enterica, sc, 144 h, 6 days, read-out: Survival Ratio (converted)
Method: The efficacy of the novel compounds in the control of infections caused by Salmonella typhimurium in chickens was evaluated in the following manner.
The test was carried out using day-old chicks weighing approximately 35 g. each. The chicks were divided into groups of 5 chicks per each dosage level. A portion of the chicks received the test compound which was suspended in 0.2 ml. of polyethylene glycol 200 and administered subcutanusly in the neck. […] All the chicks were challenged with a 1:200 dilution of a culture of the organism, 0.1 ml. of the dilution being injected into each chick in the leg intramuscularly. […] The test compounds are identified in the same manner as set forth in Experiment 1.
In the chart, column 1 lists the compounds tested; column 2, the dosage of test compound in mg./kg.; and column 3, the survival ratio.

[6] = test system: Veillonella alcalescens 1; assay: Susceptibility of anaerobic bacteria, agar dilution; type: cell-based; conditions: Veillonella parvula, 1, 24 h, read-out: 24 Hr. Minimum Inhibitory Concentration
[7] = test system: Fusobacterium necrophorum 13859; assay: as above; type: cell-based; conditions: Fusobacterium necrophorum, 13859, 24 h, read-out: 24 Hr. Minimum Inhibitory Concentration
[8] = test system: Clostridium septicum bovine; assay: as above; type: cell-based; conditions: 24 h, read-out: 24 Hr. Minimum Inhibitory Concentration
[9] = test system: Clostridium septicum 1128; assay: as above; type: cell-based; conditions: 24 h, read-out: 24 Hr. Minimum Inhibitory Concentration
[10] = test system: Bacteroides fragilis sp. vulgatus 1563; assay: as above; type: cell-based; conditions: Bacteroides fragilis, 24 h, read-out: 24 Hr. Minimum Inhibitory Concentration
[11] = test system: Clostridium innocuum 1373; assay: as above; type: cell-based; conditions: [Clostridium] innocuum, 1373, 24 h, read-out: 24 Hr. Minimum Inhibitory Concentration
[12] = test system: Bacteroides fragilis sp. vulgatus 1211; assay: as above; type: cell-based; conditions: Bacteroides fragilis, 24 h, read-out: 24 Hr. Minimum Inhibitory Concentration
[13] = test system: Propionibacterium acnes 79; assay: as above; type: cell-based; conditions: Cutibacterium acnes, 79, 24 h, read-out: 24 Hr. Minimum Inhibitory Concentration
[14] = test system: Peptostreptococcus intermedius 1264; assay: as above; type: cell-based; conditions: 24 h; Peptostreptococcus intermedius 1264; read-out: 24 Hr. Minimum Inhibitory Concentration
[15] = test system: Bacteroides fragilis sp. fragilis 1877; assay: as above; type: cell-based; conditions: Bacteroides fragilis, 24 h, read-out: 24 Hr. Minimum Inhibitory Concentration
[16] = test system: Eubacterium aerofaciens 1235; assay: as above; type: cell-based; conditions: Collinsella aerofaciens, 1235, 24 h, read-out: 24 Hr. Minimum Inhibitory Concentration
[17] = test system: Fusobacterium symbiosum 1470; assay: as above; type: cell-based; conditions: Fusobacterium, 1470, 24 h, read-out: 24 Hr. Minimum Inhibitory Concentration
Actinomyces bovis 13684 = assay: as above; type: cell-based; conditions: Actinomyces bovis, 13684, 24 h, read-out: 24 Hr. Minimum Inhibitory Concentration
Clostridium ramosum 1313 = assay: as above; type: cell-based; conditions: Thomasclavelia ramosa, 1313, 24 h, read-out: 24 Hr. Minimum Inhibitory Concentration

## CC=CC=Nc1c(C#N)c(-c2ncc([N+](=O)[O-])n2C)nn1C [Compound 18, 5-(2-butenylideneamino)-1-methyl-3-(1-methyl-5-nitro-2-imidazolyl)pyrazole-4-carbonitrile]
[1]
  MIC: > 32 µg/mL
[2]
  MIC: < 0.125 µg/mL
[3]
  MIC: < 0.125 µg/mL
[4]
  MIC: < 0.125 µg/mL
[5]
  MIC: < 0.125 µg/mL
Salmonella typhimurium; 7.5 mg./kg. subcutaneous
  responders at 7.5 mg/kg: 0%
Salmonella typhimurium; 15 mg./kg. subcutaneous
  responders at 15 mg/kg: 53.3%
Salmonella typhimurium; 30 mg./kg. subcutaneous
  responders at 30 mg/kg: 66.7%
Salmonella typhimurium; 60 mg./kg. subcutaneous
  responders at 60 mg/kg: 66.7%
[6]
  MIC: < 0.125 µg/mL
[7]
  MIC: < 0.125 µg/mL
[8]
  MIC: < 0.125 µg/mL
[9]
  MIC: < 0.125 µg/mL
[10]
  MIC: < 0.125 µg/mL
[11]
  MIC: < 0.125 µg/mL
[12]
  MIC: < 0.125 µg/mL
[13]
  MIC: < 0.125 µg/mL
[14]
  MIC: 0.25 µg/mL (≈ 0.835 µM)
[15]
  MIC: < 0.125 µg/mL
[16]
  MIC: < 0.125 µg/mL
[17]
  MIC: < 0.125 µg/mL
Actinomyces bovis 13684
  MIC: < 0.125 µg/mL
Clostridium ramosum 1313
  MIC: < 0.125 µg/mL
